Here are results for 65 molecules from PubChem BioAssay AID743404 (Broad Institute, 2014).

Assay [1] in a line: replicating M. tuberculosis growth inhibition, dose response, imaging, dry powder (AID 743404). The note with it: Mycobacterium tuberculosis replicating growth, CFU imaging.
In assay [2] the test system is Mycobacterium tuberculosis replicating growth, CFU imaging. The description is as above.

The source made the active and inactive calls. The rule behind the calls is not given here.

Turning to `Cn1c(NC(=O)c2ccc(Oc3ccccc3)cc2)nc2ccccc21`, the activity change, negative = inhibition in assay [1] (at 100 µM (top of the series)) is -18.8% (inactive). Still for that read-out and setting: as for `Cn1c(NC(=O)Nc2ccccc2)nc2ccccc21`, the figure is -16.1% (inactive).

Turning to `Cn1c(NC(=O)c2ccc(N3CCOC3=O)cc2)nc2ccccc21`, in assay [1] (at 100 µM (top of the series)), the activity change, negative = inhibition was 3.62% (inactive). Still for that read-out and setting: then `Cn1c(NC(=O)c2ccccc2)nc2cc(Cl)ccc21`, with -6.62% (inactive). Still for that read-out and setting: as for `O=C(Nc1nc2ccccc2n1Cc1ccccc1)c1ccccc1`, the figure is 3.29% (inactive); as for `Cn1c(NC(=O)c2ccc(OC(F)(F)F)cc2)nc2ccccc21`, 1.97% (inactive). On the same count and under the same terms, then `CN(C(=O)c1ccccc1)c1nc2ccccc2n1C`, with -7.26% (inactive); and `COCCn1c(NC(=O)c2ccccc2)nc2ccccc21`, with -13.8% (inactive). Consider `Cn1c(NC(=O)c2ccc(-n3ccnn3)cc2)nc2ccccc21`, for which the activity change, negative = inhibition in assay [1] (at 100 µM (top of the series)) is 0.752% (inactive). Turning to `Cn1c(NC(=O)c2ccccc2)nc2cccc(Cl)c21`, the activity change, negative = inhibition in assay [1] (at 100 µM (top of the series)) was -2% (inactive). Still for that read-out and setting: as for `Cc1ccc2c(c1)nc(NC(=O)c1ccccc1)n2C`, the figure is -14.6% (inactive). Take `Cn1c(NC(=O)c2ccccc2)nc2c3ccncc3ccc21`: the AC90 in assay [2] was 18.4 µM. The same measure, in the same setting: then `Cn1c(N)nc2ccccc21`, with > 50 µM (inactive). With `Cn1c(NC(=O)c2ccc(F)c(F)c2)nc2ccccc21`, the activity change, negative = inhibition in assay [1] (at 100 µM (top of the series)) was 1.94% (inactive). Same read-out and setting: as for `Cn1c(NC(=O)c2ccccc2)nc2cccnc21`, the figure is -6.96% (inactive).

For the molecule `Cn1c(NC(=O)c2ccc(N3CCCCC3)cc2)nc2ccccc21`, in assay [2], the AC90 was > 100 µM (inactive). Regarding `O=C(Nc1nc2ccccc2s1)c1ccccc1`, the activity change, negative = inhibition in assay [1] (at 100 µM (top of the series)) is -9.11% (inactive). Same read-out and setting: as for `COc1cccc2c1nc(NC(=O)c1ccccc1)n2C`, the figure is -17.3% (inactive); as for `COc1ccc(C(=O)Nc2nc3ccccc3n2C)cc1`, -7.64% (inactive); as for `Cc1cc(C(=O)Nc2nc3ccccc3n2C)on1`, -7.86% (inactive).

For the molecule `Cn1c(NC(=O)Cc2ccccc2)nc2ccccc21`, the activity change, negative = inhibition in assay [1] (at 100 µM (top of the series)) is -15.4% (inactive). Take `Cn1c(NC(=O)c2ccccc2)nc2c3nccnc3ccc21`: in assay [2], the AC90 was 63.9 µM. The same measure, in the same setting: as for `CO[C@H]1/C=C/O[C@@]2(C)Oc3c(C)c(O)c4c(O)c(c(C=NN5CCN(C)CC5)c(O)c4c3C2=O)NC(=O)/C(C)=C\C=C\[C@H](C)[C@H](O)[C@@H](C)[C@@H](O)[C@@H](C)[C@H](OC(C)=O)[C@@H]1C`, the figure is 6.43 µM. On to `Cn1c(NC(=O)c2ccccc2)nc2ccc(F)cc21`, for which the activity change, negative = inhibition in assay [1] (at 100 µM (top of the series)) was -13% (inactive). Turning to `Cn1c(C(=O)Nc2ccccc2)nc2ccccc21`, in assay [1] (at 100 µM (top of the series)), the activity change, negative = inhibition is -11.4% (inactive).

`COc1cccc(C(=O)Nc2nc3ccccc3n2C)c1`: the activity change, negative = inhibition in assay [1] (at 100 µM (top of the series)) is -11.3% (inactive).

Turning to `Cn1c(NC(=O)c2ccc(Cl)c(Cl)c2)nc2ccccc21`, the activity change, negative = inhibition in assay [1] (at 100 µM (top of the series)) was 0.098% (inactive).

Consider `CC(=O)Nc1nc2ccccc2n1C`, for which the activity change, negative = inhibition in assay [1] (at 100 µM (top of the series)) was -2.24% (inactive). As to `CCN(CC)CCn1c(NC(=O)c2ccccc2)nc2ccccc21`, in assay [2], the AC90 is 102 µM. With `Cn1c(NC(=O)c2ccncc2)nc2ccccc21`, the activity change, negative = inhibition in assay [1] (at 100 µM (top of the series)) is -9.25% (inactive). Turning to `Cn1c(NC(=O)c2ccccc2)nc2c(C#N)cccc21`, the AC90 in assay [2] was > 100 µM (inactive).

`Cn1c(NC(=O)c2nc3ccccc3s2)nc2ccccc21`: in assay [1] (at 100 µM (top of the series)), the activity change, negative = inhibition is 3.65% (inactive). As for `Cc1ccccc1C(=O)Nc1nc2ccccc2n1C`, the AC90 in assay [2] is > 100 µM (inactive). Same read-out and setting: as for `O=C(Nc1nc2ccccc2n1C1CCCCC1)c1ccccc1`, the figure is > 100 µM (inactive).

In the case of `Cn1c(NC(=O)c2cccc(C(F)(F)F)c2)nc2ccccc21`, the activity change, negative = inhibition in assay [1] (at 100 µM (top of the series)) is -12.4% (inactive). Still for that read-out and setting: as for `Cn1c(NC(=O)c2ccno2)nc2ccccc21`, the figure is -5.54% (inactive). Regarding `CN1CCN(c2ccc(C(=O)Nc3nc4ccccc4n3C)cc2)CC1`, in assay [2], the AC90 is > 100 µM (inactive). In the case of `CC(C)Oc1ccc(C(=O)Nc2nc3ccccc3n2C)cc1`, the activity change, negative = inhibition in assay [1] (at 100 µM (top of the series)) was -8.59% (inactive). Same read-out and setting: then `COc1ccccc1C(=O)Nc1nc2ccccc2n1C`, with -18% (inactive). Consider `O=C(Nc1nc2ccccc2n1-c1ccccc1)c1ccccc1`, for which, in assay [1] (at 50 µM (top of the series)), the activity change, negative = inhibition is -7.02% (inactive). With `Cn1c(NC(=O)c2ccc(-c3ncco3)cc2)nc2ccccc21`, in assay [1] (at 100 µM (top of the series)), the activity change, negative = inhibition was -1.55% (inactive).

In the case of `Cn1c(NC(=O)c2cccs2)nc2ccccc21`, in assay [1] (at 100 µM (top of the series)), the activity change, negative = inhibition is -15.5% (inactive).

As to `Cn1c(NC(=O)c2ccccc2C(F)(F)F)nc2ccccc21`, in assay [1] (at 100 µM (top of the series)), the activity change, negative = inhibition is -8.14% (inactive). With `Cn1c(NC(=O)c2ccccc2)nc2c(Cl)cccc21`, in assay [2], the AC90 is > 100 µM (inactive). For `Cn1c(NC(=O)c2ccccc2Cl)nc2ccccc21`, the activity change, negative = inhibition in assay [1] (at 100 µM (top of the series)) was -2.89% (inactive). For `Cn1c(NS(=O)(=O)c2ccccc2)nc2ccccc21`, the activity change, negative = inhibition in assay [1] (at 100 µM (top of the series)) was -4.4% (inactive).

In the case of `Cn1c(NC(=O)c2ccccc2)nc2c3cnccc3ccc21`, the AC90 in assay [2] was 14.4 µM. Turning to `O=C(Nc1nc2ccccc2[nH]1)c1ccccc1`, the activity change, negative = inhibition in assay [1] (at 100 µM (top of the series)) is 1.93% (inactive). Still for that read-out and setting: then `O=C(Nc1nc2ccccc2n1C1CC1)c1ccccc1`, with -6.92% (inactive); and `O=C(Nc1nc2ccccc2n1CCN1CCOCC1)c1ccccc1`, with -5.41% (inactive). Regarding `Cn1c(NC(=O)c2ccccc2)nc2c3ncccc3ccc21`, the AC90 in assay [2] is 10.6 µM. On to `Cn1c(NC(=O)c2ccccc2)nc2cc(F)ccc21`, for which the activity change, negative = inhibition in assay [1] (at 100 µM (top of the series)) was -9.27% (inactive). As for `COc1ccc(C(=O)Nc2nc3ccccc3n2C)cc1OC`, the activity change, negative = inhibition in assay [1] (at 100 µM (top of the series)) was -3.35% (inactive). With `COc1ccc2c(c1)nc(NC(=O)c1ccccc1)n2C`, the activity change, negative = inhibition in assay [1] (at 100 µM (top of the series)) was -10.1% (inactive).

For `Cn1c(NC(=O)c2cccnc2)nc2ccccc21`, in assay [2], the AC90 was 99.8 µM. For the molecule `Cn1c(NC(=O)c2ccccc2)nc2ccc(C#N)cc21`, the activity change, negative = inhibition in assay [1] (at 100 µM (top of the series)) is 4.9% (inactive). Consider `Cn1c(NC(=O)c2ccc3ncoc3c2)nc2ccccc21`, for which the activity change, negative = inhibition in assay [1] (at 100 µM (top of the series)) was 1.4% (inactive). Turning to `Cn1c(NC(=O)c2ccccc2)nc2cc(C#N)ccc21`, the AC90 in assay [2] was > 100 µM (inactive). For `Cn1c(NC(=O)c2ccc(C#N)cc2)nc2ccccc21`, the activity change, negative = inhibition in assay [1] (at 100 µM (top of the series)) is -1.94% (inactive). In the case of `Cn1c(NC(=O)c2ccc(N3CCOCC3)cc2)nc2ccccc21`, in assay [1] (at 100 µM (top of the series)), the activity change, negative = inhibition is -9.12% (inactive).

Consider `Cn1c(N2CCN(C(=O)c3ccccc3)CC2)nc2ccccc21`, for which, in assay [2], the AC90 was > 100 µM (inactive).

Turning to `CC(C)n1c(NC(=O)c2ccccc2)nc2ccccc21`, the activity change, negative = inhibition in assay [1] (at 100 µM (top of the series)) is -7.84% (inactive). As to `Cn1c(NC(=O)c2ccccc2)nc2ccc3ncccc3c21`, the activity change, negative = inhibition in assay [1] (at 100 µM (top of the series)) is -10.6% (inactive).

As for `Cn1c(NC(=O)c2ccccc2)nc2cc(C(F)(F)F)ccc21`, in assay [1] (at 100 µM (top of the series)), the activity change, negative = inhibition was -1.86% (inactive). The same measure, in the same setting: as for `Cn1c(NC(=O)c2ccc(-c3nccs3)cc2)nc2ccccc21`, the figure is 1.95% (inactive).
